Data reported in the supplement of paper PMC10307832.

Legend:
Test in all cases: relative viability (nuclei count vs DMSO), 5 days (fraction); higher = more cells survive
Carboplatin + Tozasertib = compound: C1CC(C1)(C(=O)O)C(=O)O.[NH2-].[NH2-].[Pt+2] [Carboplatin] + Cc1cc(Nc2cc(N3CCN(C)CC3)nc(Sc3ccc(NC(=O)C4CC4)cc3)n2)n[nH]1 [Tozasertib] (partner 0.1 µM)
Procedure, shortened: (§1)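 One day after seeding in 1536-well plates, lung cancer cell lines were dosed by pin tool. Dosing was either single-drug or a fixed anchor-drug dose plus five library-drug doses (not always all listed) in √10 steps. After 5 days, nuclei were stained in one fix-and-stain step and counted on 4× images, and relative viability is the nuclei count of treated wells over that of vehicle wells, given as the median of duplicate plates.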

GSK126 + OSI-027 = compound: CC[C@H](C)N1C=C(C2=C(C=C(C=C21)C3=CN=C(C=C3)N4CCNCC4)C(=O)NCC5=C(C=C(NC5=O)C)C)C [GSK126] + COc1cccc2cc(-c3nc([C@H]4CC[C@H](C(=O)O)CC4)n4ncnc(N)c34)[nH]c12 [OSI-027] (partner 0.5 µM)
Procedure, shortened: as §1

MLN4924 + Linsitinib = compound: NS(=O)(=O)OC[C@@H]1C[C@@H](n2ccc3c(N[C@H]4CCc5ccccc54)ncnc32)C[C@@H]1O [MLN4924] + C[C@]1(O)C[C@@H](c2nc(-c3ccc4ccc(-c5ccccc5)nc4c3)c3c(N)nccn32)C1 [Linsitinib] (partner 1 µM)
Procedure, shortened: as §1

MLN4924 + Decitabine = compound: NS(=O)(=O)OC[C@@H]1C[C@@H](n2ccc3c(N[C@H]4CCc5ccccc54)ncnc32)C[C@@H]1O [MLN4924] + Nc1ncn([C@H]2C[C@H](O)[C@@H](CO)O2)c(=O)n1 [Decitabine] (partner 2 µM)
Procedure, shortened: as §1

Row | Cell Line | relative viability (Carboplatin + Tozasertib; first compound 0.08 µM) | relative viability (Carboplatin + Tozasertib; first compound 0.253 µM) | relative viability (Carboplatin + Tozasertib; first compound 0.8 µM) | relative viability (Carboplatin + Tozasertib; first compound 2.53 µM) | relative viability (Carboplatin + Tozasertib; first compound 8 µM) | relative viability (GSK126 + OSI-027; first compound 0.08 µM) | relative viability (GSK126 + OSI-027; first compound 0.253 µM) | relative viability (GSK126 + OSI-027; first compound 0.8 µM) | relative viability (GSK126 + OSI-027; first compound 2.53 µM) | relative viability (GSK126 + OSI-027; first compound 8 µM) | relative viability (MLN4924 + Linsitinib; first compound 0.04 µM) | relative viability (MLN4924 + Linsitinib; first compound 0.1265 µM) | relative viability (MLN4924 + Linsitinib; first compound 0.4 µM) | relative viability (MLN4924 + Linsitinib; first compound 1.265 µM) | relative viability (MLN4924 + Linsitinib; first compound 4 µM) | relative viability (MLN4924 + Decitabine; first compound 0.04 µM) | relative viability (MLN4924 + Decitabine; first compound 0.1265 µM) | relative viability (MLN4924 + Decitabine; first compound 0.4 µM) | relative viability (MLN4924 + Decitabine; first compound 1.265 µM) | relative viability (MLN4924 + Decitabine; first compound 4 µM)
1 | NCI-H650 | 0.768 | 0.766 | 0.638 | 0.661 | 0.453 | 0.49 | 0.529 | 0.489 | 0.497 | 0.583 | 0.611 | 0.604 | 0.266 | 0.186 | 0.174 | 0.272 | 0.253 | 0.201 | 0.167 | 0.165
2 | NCI-H2126 | 0.971 | 0.915 | 0.882 | 0.828 | 0.732 | 0.725 | 0.861 | 0.721 | 0.649 | 0.707 | 0.747 | 0.69 | 0.576 | 0.327 | 0.391 | 0.526 | 0.49 | 0.425 | 0.293 | 0.231
3 | NCI-H838 | 0.296 | 0.28 | 0.254 | 0.273 | 0.279 | 0.43 | 0.403 | 0.309 | 0.424 | 0.379 | 0.675 | 0.283 | 0.208 | 0.161 | 0.149 | 0.351 | 0.257 | 0.224 | 0.176 | 0.186
4 | EPLC-272H | 0.314 | 0.387 | 0.181 | 0.289 | 0.291 | 0.295 | 0.309 | 0.318 | 0.353 | 0.303 | 1.14 | 1.13 | 0.147 | 0.183 | 0.216 | 0.325 | 0.284 | 0.0744 | 0.108 | 0.106
5 | NCI-H1437 | 0.386 | 0.43 | 0.403 | 0.4 | 0.401 | 0.913 | 0.854 | 0.77 | 0.844 | 0.828 | 0.959 | 0.828 | 0.466 | 0.221 | 0.103 | 0.529 | 0.435 | 0.438 | 0.254 | 0.249
6 | NCI-H2405 | 0.786 | 0.779 | 0.688 | 0.682 | 0.768 | 0.602 | 0.633 | 0.611 | 0.622 | 0.662 | 1.09 | 1.12 | 0.686 | 0.246 | 0.245 | 0.659 | 0.483 | 0.406 | 0.28 | 0.28
7 | NCI-H1666 | 0.597 | 0.683 | 0.599 | 0.534 | 0.526 | 0.886 | 0.868 | 0.986 | 0.789 | 0.822 | 1.01 | 0.504 | 0.263 | 0.225 | 0.252 | 0.699 | 0.622 | 0.417 | 0.393 | 0.389
8 | NCI-H1993 | 0.61 | 0.643 | 0.575 | 0.593 | 0.635 | 0.492 | 0.53 | 0.557 | 0.542 | 0.541 | 0.937 | 0.719 | 0.68 | 0.632 | 0.584 | 0.666 | 0.523 | 0.451 | 0.424 | 0.422
9 | HCC-78 | 0.413 | 0.335 | 0.431 | 0.483 | 0.465 | 0.359 | 0.379 | 0.384 | 0.373 | 0.396 | 0.556 | 0.355 | 0.628 | 0.135 | 0.147 | 0.685 | 0.775 | 0.485 | 0.27 | 0.244
10 | LU99A | 0.282 | 0.279 | 0.248 | 0.258 | 0.212 | 0.341 | 0.324 | 0.275 | 0.311 | 0.296 | 0.469 | 0.332 | 0.254 | 0.147 | 0.177 | 0.595 | 0.298 | 0.341 | 0.176 | 0.14
11 | NCI-H520 | 0.5 | 0.433 | 0.438 | 0.389 | 0.459 | 0.313 | 0.269 | 0.289 | 0.307 | 0.314 | 0.587 | 0.413 | 0.312 | 0.239 | 0.185 | 0.447 | 0.338 | 0.249 | 0.148 | 0.207
12 | NCI-H661 | 0.371 | 0.336 | 0.33 | 0.301 | 0.348 | 0.769 | 0.737 | 0.762 | 0.746 | 0.74 | 0.636 | 0.757 | 0.576 | 0.258 | 0.247 | 0.587 | 0.539 | 0.422 | 0.281 | 0.331
13 | NCI-H1975 | 0.882 | 0.719 | 0.634 | 0.626 | 0.677 | 0.867 | 0.81 | 0.747 | 0.749 | 0.722 | 0.991 | 1.17 | 0.825 | 0.234 | 0.226 | 0.413 | 0.429 | 0.309 | 0.237 | 0.201
14 | NCI-H1355 | 0.578 | 0.616 | 0.601 | 0.489 | 0.55 | 0.412 | 0.362 | 0.418 | 0.453 | 0.44 | 0.875 | 0.704 | 0.789 | 0.207 | 0.211 | 0.367 | 0.307 | 0.321 | 0.215 | 0.184
15 | NCI-H1755 | 0.57 | 0.587 | 0.543 | 0.535 | 0.484 | 0.747 | 0.725 | 0.75 | 0.8 | 0.689 | 1.07 | 0.701 | 0.447 | 0.159 | 0.2 | 0.644 | 0.545 | 0.526 | 0.378 | 0.245
16 | NCI-H2009 | 0.848 | 0.694 | 0.76 | 0.613 | 0.45 | 0.789 | 0.544 | 0.64 | 0.682 | 0.72 | 0.816 | 0.36 | 0.247 | 0.143 | 0.0806 | 0.342 | 0.289 | 0.218 | 0.174 | 0.118
17 | LK-2 | 0.16 | 0.168 | 0.184 | 0.163 | 0.137 | 0.168 | 0.245 | 0.212 | 0.282 | 0.303 | 0.497 | 0.46 | 0.289 | 0.198 | 0.203 | 0.228 | 0.253 | 0.216 | 0.118 | 0.156
18 | HCC-827 | 0.441 | 0.414 | 0.413 | 0.418 | 0.397 | 0.803 | 0.83 | 0.768 | 0.768 | 0.776 | 0.801 | 0.527 | 0.468 | 0.228 | 0.211 | 0.336 | 0.308 | 0.218 | 0.15 | 0.2
19 | NCI-H322M | 0.534 | 0.532 | 0.56 | 0.481 | 0.479 | 0.544 | 0.571 | 0.56 | 0.565 | 0.62 | 0.86 | 0.908 | 0.913 | 0.262 | 0.328 | 0.707 | 0.65 | 0.62 | 0.469 | 0.491
20 | NCI-H727 | 0.572 | 0.653 | 0.54 | 0.562 | 0.624 | 0.653 | 0.686 | 0.599 | 0.603 | 0.627 | 0.402 | 0.169 | 0.234 | 0.21 | 0.24 | 0.783 | 0.823 | 0.546 | 0.493 | 0.502
21 | NCI-H1944 | 0.245 | 0.247 | 0.263 | 0.24 | 0.237 | 0.456 | 0.423 | 0.423 | 0.369 | 0.449 | 1.38 | 1.19 | 1.02 | 0.257 | 0.37 | 0.454 | 0.324 | 0.334 | 0.17 | 0.146
22 | BEN | 0.588 | 0.633 | 0.469 | 0.486 | 0.433 | 0.324 | 0.349 | 0.281 | 0.288 | 0.287 | 0.765 | 0.464 | 0.319 | 0.17 | 0.188 | 0.517 | 0.436 | 0.383 | 0.288 | 0.243
23 | NCI-H2085 | 0.899 | 0.875 | 0.727 | 0.902 | 0.788 | 0.919 | 0.716 | 0.839 | 0.683 | 0.812 | 0.868 | 0.839 | 0.577 | 0.313 | 0.235 | 0.492 | 0.58 | 0.612 | 0.48 | 0.424
24 | LCLC-103H | 0.517 | 0.466 | 0.439 | 0.532 | 0.473 | 0.514 | 0.453 | 0.533 | 0.435 | 0.456 | 1.33 | 1.21 | 1.2 | 0.316 | 0.355 | 0.807 | 0.638 | 0.547 | 0.261 | 0.315
25 | EKVX | 0.439 | 0.371 | – | 0.381 | 0.38 | 0.753 | 0.679 | 0.669 | 0.822 | 0.781 | 0.949 | 0.653 | 0.471 | 0.169 | 0.127 | 0.35 | 0.369 | 0.346 | 0.22 | 0.191
26 | 201T | 0.988 | 0.933 | 0.985 | 0.942 | 0.89 | 0.822 | 0.772 | 0.736 | 0.865 | 0.759 | 1.22 | 1.29 | 1.17 | 0.481 | 0.505 | 0.88 | 0.653 | 0.582 | 0.368 | 0.293
